“And” between values parts separate entries of the source, which are not always exact repeats. Identical values can stand only once. Where a SMILES comes first, the peptide text is derived from it. [ ]: non-standard residue; d: D form. pS = N[C@@H](COP(=O)(O)O)C(=O)O

One experiment addresses T1, 14-3-3 protein (Homo sapiens, UniProt P63104).
T1 sequence (P63104 1-245): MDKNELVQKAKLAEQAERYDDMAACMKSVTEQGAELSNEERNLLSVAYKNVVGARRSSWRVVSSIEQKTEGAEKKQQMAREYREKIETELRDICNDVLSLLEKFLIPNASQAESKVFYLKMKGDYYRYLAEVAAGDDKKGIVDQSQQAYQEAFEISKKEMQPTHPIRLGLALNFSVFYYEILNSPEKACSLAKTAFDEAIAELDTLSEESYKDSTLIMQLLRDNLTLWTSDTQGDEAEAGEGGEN
Description: Degenerate peptide pools tested as competitive inhibitors of 14-3-3 binding. The following applies: competitor peptide 10 μM; no peptide = 100%. As to the method: A series of degenerate peptides based upon phosphoserine Raf-621 peptide (SEQ ID NO: 10) were synthesized to confirm that the arginine in the -3 position, the serine in the -2 position and the proline in the +2 position were the critical motif residues (Table 5). Six pools of peptides were synthesized with all twenty amino acids placed in positions -5, -3, -2, -1, +1 and +2 respectively. Each pool of twenty peptides was tested as competitive inhibitors for binding. We reasoned that if a particular position is not critical for binding, the pool of twenty peptides should compete as well as wild-type peptide for binding. On the other hand, if a particular amino acid is required at a particular position, only a small fraction of the pool will be able to compete for binding, thus increasing (up to 20 fold) the concentration of peptide needed to inhibit binding.

For another experiment, the target named is T2, 14-3-3 tau (Homo sapiens, UniProt P27348).
T2 construct: made in house; host or cells: E. coli DH5α (vector pGEX-KT)
T2 sequence (P27348 1-245): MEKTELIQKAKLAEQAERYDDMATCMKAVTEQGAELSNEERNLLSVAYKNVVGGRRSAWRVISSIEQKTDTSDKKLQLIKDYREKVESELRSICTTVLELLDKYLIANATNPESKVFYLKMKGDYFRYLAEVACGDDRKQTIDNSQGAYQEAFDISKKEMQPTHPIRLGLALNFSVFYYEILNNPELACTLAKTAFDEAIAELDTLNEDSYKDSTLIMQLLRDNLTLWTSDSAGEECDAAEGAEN
Description: SPR competitive inhibition of 14-3-3 tau binding to phosphorylated Raf-259 peptide. The following applies: isoform tau. As to the method: (§1) The ability of each peptide to inhibit binding of 14-3-3 zeta to the phosphorylated peptide was then tested in a range of concentrations between 1 and 50 μM. 14-3-3 zeta was prepared according to the methods in Example 1 and binding affinities and specificities were determined using the peptides in Table 2. The 14-3-3 zeta fusion proteins (0.5-1.0 μM) were pre-incubated with a given peptide at concentrations between 1 μM and 50 μM. 14-3-3 zeta was then infused across a sensor chip surface which had been previously coupled with the phosphorylated Raf-259 peptide (SEQ ID NO: 4). IC50 values were determined by plotting the concentration of competitor peptide required to achieve a 50% reduction in equilibrium binding.
(§2) There are seven known isoforms of 14-3-3 which form homo- and heterodimers in vivo. If different isoforms of 14-3-3 could bind to proteins with distinct specificities, heterodimeric forms of 14-3-3 might function as modular linker proteins, bringing together different proteins into a single complex. We were, therefore, interested in determining whether different 14-3-3 isoforms recognize phosphoserine in a sequence specific fashion. This hypothesis was tested by expressing and purifying three other 14-3-3 isoforms, eta, beta and tau, and measuring their affinity towards the panel of phosphorylated peptides generated above. Using the Surface Plasmon Resonance method, the "on" and "off" rates for 14-3-3 binding to the phosphorylated Raf-259 peptide were calculated (Table 6).
(§3) Competitive inhibition with the mutated phosphorylated Raf-1 peptides was used to determine whether their specificities were similar (Table 7). In each case, the calculated IC50 s were very similar to those calculated for 14-3-3 zeta.

In experiment [1] the target is T3, 14-3-3 zeta (Homo sapiens, UniProt P63104).
T3 construct: made in house; host or cells: E. coli DH5α (vector pGEX-KT)
T3 sequence (P63104 1-245): T1 sequence (P63104 1-245)
Description: SPR competitive inhibition of 14-3-3 zeta binding to chip-coupled phosphorylated Raf-259 peptide. The following applies: 14-3-3 zeta 0.5-1.0 μM; competitor 1-50 μM; relative affinity only. As to the method:
as §1

A further experiment concerns the target T4, 14-3-3 eta (Homo sapiens, UniProt Q04917).
T4 construct: made in house; host or cells: E. coli DH5α (vector pGEX-KT)
T4 sequence (Q04917 1-246): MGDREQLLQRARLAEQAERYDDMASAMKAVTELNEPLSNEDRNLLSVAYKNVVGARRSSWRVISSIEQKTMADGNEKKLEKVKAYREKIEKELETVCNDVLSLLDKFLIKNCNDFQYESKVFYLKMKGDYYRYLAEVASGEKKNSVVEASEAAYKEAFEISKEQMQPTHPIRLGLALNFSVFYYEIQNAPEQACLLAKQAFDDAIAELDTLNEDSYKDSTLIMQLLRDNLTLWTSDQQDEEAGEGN
Description: SPR competitive inhibition of 14-3-3 eta binding to phosphorylated Raf-259 peptide. The following applies: isoform eta. As to the method: as §1, §2, §3

The next experiment concerns the target T5, 14-3-3 beta (Homo sapiens, UniProt P31946).
T5 construct: made in house; host or cells: E. coli DH5α (vector pGEX-KT)
T5 sequence (P31946 1-246): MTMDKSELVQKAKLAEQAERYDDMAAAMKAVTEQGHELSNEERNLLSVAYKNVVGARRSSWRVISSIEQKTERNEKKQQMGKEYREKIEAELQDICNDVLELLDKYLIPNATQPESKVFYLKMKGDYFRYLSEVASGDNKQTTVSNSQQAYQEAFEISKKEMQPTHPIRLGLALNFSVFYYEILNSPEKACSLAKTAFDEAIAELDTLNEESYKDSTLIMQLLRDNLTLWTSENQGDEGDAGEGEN
Description: SPR competitive inhibition of 14-3-3 beta binding to phosphorylated Raf-259 peptide. The note with it: isoform beta. As to the method:
as §1, §2, §3

In experiment [2] the target is T3, 14-3-3 zeta. Kind of experiment: Displacement of 32P-labeled phosphorylated Raf-259 peptide from immobilized GST/14-3-3 zeta (scintigraphy). It is filed as binding. The note with it: non-radiolabeled competitors. On the procedure:
The 14-3-3 protein isoforms for use in binding studies with the above peptides were prepared as proteins fused with glutathione-S-transferase (GST) and immobilized to glutathione agarose beads. GST/14-3-3 fusion proteins were made by generating BamHI and EcoRI restriction endonuclease sites (underlined) at the 5' and 3' ends respectively of the 14-3-3 cDNAs by polymerase chain reaction (PCR) using the following isoform sequence specific pairs of primers: 14-3-3 beta, […] (SEQ ID NO: 11), […] (SEQ ID NO: 12); 14-3-3 eta […] (SEQ ID NO: 13), […] (SEQ ID NO: 14); 14-3-3 tau […] (SEQ ID NO: 15), […] (SEQ ID NO: 16); 14-3-3 zeta […] (SEQ ID NO: 17), […] (SEQ ID NO: 18). The cDNA products were digested with BamHI and EcoRI, subcloned into the vector pGEX-KT (Guan and Dixon, Anal Biochem 192: 262-7, 1991 which is incorporated by reference). The vector was used to transform the DH5α strain of E. Coli. GST-14-3-3 fusion protein expression in log-growth phase bacterial cultures was accomplished by induction with 100 μM isopropyl β-D-thiogalactopyranoside (IPTG; Gold Biotechnology, St. Louis) for 4 hours. Cells were disrupted by sonication and lysates, containing 1% Triton X-100, were incubated with glutathione agarose beads (Sigma, St. Louis) at 4° C. overnight. Fusion proteins were eluted by incubation with 10 mM reduced glutathione (Sigma, St. Louis) in phosphate buffered saline for 1 hour at room temperature, dialyzed in phosphate buffered saline and quantitated by Coomassie staining SDS polyacrylamine gels compared against bovine serum albumin standards.
The Raf-259 peptide (SEQ ID NO: 4) was phosphorylated in vitro using protein kinase A (PKA) and [^32 P]-γ-ATP following the manufacturers instruction (PKA, New England Biolabs) with 20 μCi of [^32 P]-γ-ATP (NEN-Dupont, 6000 Ci/mmol). The efficiency of phosphorylation was calculated to be between 7 and 12% based upon the specific activity of the labelled peptide.
The labeled peptide was then incubated with immobilized 14-3-3 zeta fusion protein and binding of the labelled peptide was measured. […] Binding was also sequence specific. […]

For orientation: IC50 means the point on the concentration scale where inhibition reaches its midpoint. Read a high IC50 as weaker potency in that assay. Take `CC[C@H](C)[C@H](NC(=O)[C@H](CCCCN)NC(=O)[C@@H]1CCCN1C(=O)[C@@H](N)CC(C)C)C(=O)N[C@@H](CC(N)=O)C(=O)N[C@@H](CCCNC(=N)N)C(=O)N[C@@H](CO)C(=O)N[C@@H](C)C(=O)N[C@@H](COP(=O)(O)O)C(=O)N[C@@H](CCC(=O)O)C(=O)N1CCC[C@H]1C(=O)N[C@@H](CO)C(=O)N[C@@H](CC(C)C)C(=O)N[C@@H](Cc1c[nH]cn1)C(=O)N[C@@H](CCCNC(=N)N)C(=O)O` [pS-Raf-621, Leu-Pro-Lys-Ile-Asn-Arg-Ser-Ala-Xaa-Glu-Pro-Ser-Leu-His-Arg] (H-LPKINRSA[pS]EPSLHR-OH): at 14-3-3 protein, the “% BINDING @ 10 μM” value is less than 5%. Further, the IC50 was 2000 nM at 14-3-3 tau; ~1000 nM and 1000 nM at 14-3-3 zeta [1]; 3000 nM on 14-3-3 eta; 2000 nM at 14-3-3 beta.

`N[C@@H](COP(=O)(O)O)C(=O)O` [free phosphoserine, phosphoserine]: the “displacement of bound labeled phosphorylated peptide from 14-3-3 zeta” value at 14-3-3 zeta [2] is recorded as “Neither”.

Source of the values: patent US6207393A, “Inhibition of intracellular signal transduction by 14-3-3-binding peptides” (Washington University, priority 1999, dated 2001).
